From patent US20260152497A1, “MIDAZO[4,5-c]QUINOLINE-4-AMINE COMPOUNDS AND CONJUGATES THEREOF, THEIR PREPARATION, AND THEIR [sequence] APPLICATIONS” (SANOFI, priority 2021, published 2026)
Like-named read-outs stand apart in the source and are kept apart here.

Assays:
[1] = monotherapy, intravenous; cited from earlier work
[2] = molecular target: T1, human TLR7 (Homo sapiens, UniProt Q9NYK1); assay: TLR7 pathway activation, parental HEK-Blue hTLR7 reporter cells (SEAP); type: cell-based
T1 construct: host or cells: HEK293 (HEK-Blue hTLR7); engineered variants additionally transfected with tumor antigen genes
T1 sequence (Q9NYK1 27-1049): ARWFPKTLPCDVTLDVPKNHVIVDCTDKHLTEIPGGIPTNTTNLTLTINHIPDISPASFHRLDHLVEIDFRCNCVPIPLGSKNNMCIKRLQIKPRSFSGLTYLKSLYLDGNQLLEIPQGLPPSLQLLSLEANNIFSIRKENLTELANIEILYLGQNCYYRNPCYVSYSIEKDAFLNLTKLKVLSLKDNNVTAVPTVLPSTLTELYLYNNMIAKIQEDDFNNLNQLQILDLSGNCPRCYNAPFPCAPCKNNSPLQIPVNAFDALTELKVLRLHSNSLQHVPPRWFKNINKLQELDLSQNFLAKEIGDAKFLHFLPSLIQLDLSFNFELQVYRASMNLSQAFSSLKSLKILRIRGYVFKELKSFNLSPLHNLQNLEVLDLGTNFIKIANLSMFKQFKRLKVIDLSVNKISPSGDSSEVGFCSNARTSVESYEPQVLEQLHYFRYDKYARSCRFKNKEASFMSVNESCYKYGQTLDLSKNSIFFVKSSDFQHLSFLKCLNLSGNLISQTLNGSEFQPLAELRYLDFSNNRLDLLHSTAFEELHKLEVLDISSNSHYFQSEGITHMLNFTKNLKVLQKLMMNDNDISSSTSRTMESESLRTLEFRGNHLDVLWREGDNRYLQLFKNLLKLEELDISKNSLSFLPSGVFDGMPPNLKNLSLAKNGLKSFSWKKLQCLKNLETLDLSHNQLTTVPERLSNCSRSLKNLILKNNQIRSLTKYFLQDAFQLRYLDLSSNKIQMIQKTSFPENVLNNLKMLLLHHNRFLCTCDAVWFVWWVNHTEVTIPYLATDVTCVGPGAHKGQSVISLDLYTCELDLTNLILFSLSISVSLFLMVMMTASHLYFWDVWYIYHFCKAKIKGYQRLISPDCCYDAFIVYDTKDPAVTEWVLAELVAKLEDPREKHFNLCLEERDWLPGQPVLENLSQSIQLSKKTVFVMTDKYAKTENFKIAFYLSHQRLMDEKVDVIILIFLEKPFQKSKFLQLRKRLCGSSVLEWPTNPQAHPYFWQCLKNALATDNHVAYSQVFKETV
Procedure: The below tests involving measuring the in vitro activity of some compounds of the disclosure on human TLR7 pathway were carried out using parental HEK-Blue™ hTLR7 cells and engineered tumor antigen-expressing HEK-Blue™ hTLR7 cells respectively as reporter cells.
(§1) HEK-Blue™ hTLR7 Cells (#hkb-htlr7) and HEK-Blue™ hTLR8 Cells (#hkb-htlr8) cells from InvivoGen and the engineered tumor antigen expressing cells were used according to the manufacturer's instructions. The HEK-Blue™ hTLR7 and HEK-Blue™ hTLR8 cells were obtained by co-transfection of the hTLR7 or hTLR8 gene in HEK293 cells and an optimized Secreted Embryonic Alkaline Phosphatase (SEAP) reporter gene which is placed under the control of the IFN-β minimal promoter fused to five NF-κB and AP-1-binding sites. The human tumor antigen expressing HEK-Blue™ hTLR7 and hTLR8 cells were obtained by transfection of the tumor antigen genes in the parental cells followed by a polyclonal selection to enrich in cells overexpressing the tumor antigen. Stimulation with a TLR7/8 ligand activates NF-kB and AP-1 which induce the production of SLAP. The cells are seeded in 96-well plate at 3.10E4 cells/well and incubated 24 hours at 37C, 5% CO2 before adding the conjugates to be evaluated. The cells are subsequently incubated with 3-fold serial dilutions of each of the compounds (0.01 nM to 1 μM) for 96 hours at 37° C., 5% CO2. Next, 20 μL of the supernatant is harvested and incubated with 200 μL of QUANTI-Blue™ Solution.

[3] = molecular target: T2, human TLR8 (Homo sapiens, UniProt Q9NR97); assay: TLR8 pathway activation, parental HEK-Blue hTLR8 reporter cells (SEAP); type: cell-based; settings: unnumbered table b703
T2 construct: host or cells: HEK293 (HEK-Blue hTLR8); engineered variant additionally transfected with the CEACAM5 tumor antigen gene
T2 sequence (Q9NR97 27-1041): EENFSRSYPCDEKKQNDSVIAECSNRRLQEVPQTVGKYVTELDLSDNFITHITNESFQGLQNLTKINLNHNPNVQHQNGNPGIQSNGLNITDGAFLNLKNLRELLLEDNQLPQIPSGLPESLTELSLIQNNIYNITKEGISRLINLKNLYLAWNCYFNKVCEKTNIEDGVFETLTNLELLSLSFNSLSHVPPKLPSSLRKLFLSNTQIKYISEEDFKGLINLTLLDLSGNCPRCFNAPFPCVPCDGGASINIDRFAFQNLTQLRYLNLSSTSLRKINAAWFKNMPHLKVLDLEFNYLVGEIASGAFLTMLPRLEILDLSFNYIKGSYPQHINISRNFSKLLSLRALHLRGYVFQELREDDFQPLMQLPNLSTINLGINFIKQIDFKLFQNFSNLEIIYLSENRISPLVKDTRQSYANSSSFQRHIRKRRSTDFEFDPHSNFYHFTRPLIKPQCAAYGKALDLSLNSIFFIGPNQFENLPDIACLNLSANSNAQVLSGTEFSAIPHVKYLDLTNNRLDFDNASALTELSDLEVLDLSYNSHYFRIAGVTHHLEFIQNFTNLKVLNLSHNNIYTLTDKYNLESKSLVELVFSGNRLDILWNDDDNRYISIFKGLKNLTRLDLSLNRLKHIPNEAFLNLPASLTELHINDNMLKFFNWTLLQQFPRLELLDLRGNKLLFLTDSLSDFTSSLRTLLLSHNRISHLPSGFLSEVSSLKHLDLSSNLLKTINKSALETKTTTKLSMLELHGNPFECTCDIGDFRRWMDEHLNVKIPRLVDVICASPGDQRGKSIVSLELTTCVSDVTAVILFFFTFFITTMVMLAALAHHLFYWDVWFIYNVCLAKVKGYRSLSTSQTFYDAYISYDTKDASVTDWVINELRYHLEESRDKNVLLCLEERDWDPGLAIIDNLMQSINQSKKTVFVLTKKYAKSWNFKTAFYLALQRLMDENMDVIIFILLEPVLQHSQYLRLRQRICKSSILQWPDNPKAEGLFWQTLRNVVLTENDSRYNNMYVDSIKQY
Source text: as §1, with “evaluated.” for “evaluated. The cells are subsequently incubated with 3-fold serial dilutions of each of the compounds (0.01 nM to 1 μM) for 96 hours at 37° C., 5% CO2. Next, 20 μL of the supernatant is harvested and incubated with 200 μL of QUANTI-Blue™ Solution.”

[4] = test system: NFkB pathway THP1-Dual cells; assay: Stimulation of human THP-1 monocytic cells, THP1-Dual reporter cells (SEAP, NF-kB); type: cell-based
Procedure: The compounds/conjugates of formula (II) according to the disclosure were subjected to pharmacological testing for determining their activity on human monocytic cells that express at their membrane surface Fc receptors that show binding specificity for the Fc part of the compounds/conjugates of formula (II). The below tests involving measuring the in vitro activity of some compounds/conjugates of formula (II) of the disclosure were carried out using THP1-Dual™ cells as reporter monocyte cells. […] THP1-Dual™ cells (#thpd-nfis) from InvivoGen were used according to the manufacturer's instructions. The cells were obtained by stable integration of two inducible reporter constructs in human THP-1 monocyte cells: an optimized Secreted Embryonic Alkaline Phosphatase (SEAP) reporter gene which is placed under the control of the IFN-β minimal promoter fused to five NF-κB and three c-Rel binding sites and a Secreted Lucia luciferase gene which is placed under the control of an ISG54 minimal promoter fused with five interferon (IFN)-stimulated response elements. As a result, THP1-Dual™ cells allow to study the activation of the NF-κB pathway by monitoring the activity of SEAP, and the interferon regulatory factor pathway, by assessing the activity of Lucia luciferase.

[5] = molecular target: Fc receptors at the membrane surface of human THP-1 monocytic cells; assay: cell-based or functional assay
[6] = test system: human MKN-45 tumor cells; assay: Incucyte Immune Cell Killing Assay, co-culture of human PBMC and NucLight red-labelled MKN-45 tumor cells; type: cell-based; settings: 10 nM, 120-hour incubation, PBMC + MKN-45 co-culture
Procedure: The conjugates according to the disclosure were subjected to pharmacological testing for determining their tumor cell killing activity via immune cell activation.
The below tests involving measuring the in vitro tumor cell killing activity of some compounds of the disclosure were carried out using Incucyte® Immune Cell Killing Assay consisting in co-culture of human peripheral blood mononuclear cells (PBMC) and NucLight red-labelled human MKN-45 tumor cells. This Immune Cell Killing Assay allows for direct, measurements of immune cell-mediated killing of MKN-45 tumor cells with the combination of real-time, automated analysis of tumor cell number.
MKN-45 (stomach tumor cell line, DSMZ Germany) were used as they present a very high expression of CEACAM5 (Antigen Binding Capacity ≈3.10E5 receptors per cell). To count living MKN-45 cells in real time without altering their function, MKN45 cells have been stained thanks to a lentiviral-based labeling reagent enabling expression of a nuclear-restricted red (Nuclight Red) fluorescent protein. […]
The plates were then placed in the Incucyte® live-cell analysis apparatus. The Incucyte® Cell-by-Cell Analysis module was used to quantify the number of NucLight red-labelled MKN-45 tumor cells over-time. […]

[7] = molecular target: human CEACAM5 (human) (UniProt P06731); assay: cell-based or functional assay
[8] = Table 1a, 96 hours, read-out: EC50 HEKBlue-hTLR7
[9] = Homo sapiens, THP1-Dual, Table 6, reference ligands

Sequence of human CEACAM5 (human) (P06731 35-685 limits assumed): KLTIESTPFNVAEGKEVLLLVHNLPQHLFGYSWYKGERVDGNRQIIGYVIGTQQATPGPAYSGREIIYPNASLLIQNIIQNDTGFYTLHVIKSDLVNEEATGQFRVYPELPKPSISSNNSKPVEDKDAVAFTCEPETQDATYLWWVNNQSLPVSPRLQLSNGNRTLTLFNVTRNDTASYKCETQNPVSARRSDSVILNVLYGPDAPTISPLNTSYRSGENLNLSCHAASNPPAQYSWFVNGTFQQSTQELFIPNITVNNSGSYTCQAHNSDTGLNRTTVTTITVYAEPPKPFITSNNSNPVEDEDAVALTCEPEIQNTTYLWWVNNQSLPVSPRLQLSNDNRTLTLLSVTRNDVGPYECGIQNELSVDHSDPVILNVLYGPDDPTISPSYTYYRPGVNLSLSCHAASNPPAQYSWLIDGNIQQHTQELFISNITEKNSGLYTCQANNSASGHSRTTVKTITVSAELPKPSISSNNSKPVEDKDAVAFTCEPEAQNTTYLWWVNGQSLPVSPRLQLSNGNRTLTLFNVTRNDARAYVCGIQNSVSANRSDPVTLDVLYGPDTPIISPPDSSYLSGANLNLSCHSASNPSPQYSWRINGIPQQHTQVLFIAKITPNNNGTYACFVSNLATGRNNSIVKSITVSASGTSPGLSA

CCOCc1nc2c(N)nc3ccccc3c2n1CC(C)(C)O.O=S(=O)(O)O [BDB-001]
treatment-related adverse events, share of the enrolled patients [1]: around 78%

CCOCc1nc2c(N)nc3ccccc3c2n1CC(C)(C)N [Example 3M012, 1-(2-amino-2-methylpropyl)-2-(ethoxymethyl)-1H-imidazo[4,5-c]quinolin-4-amine, reference compound]
EC50 [2, 8]: 518 nM
EC50 ([2]; unnumbered table b703, read-out: EC50 on HEK-Blue ™ hTLR7 cells): 518 nM
EC50 [3]: 2540 nM

CCOCc1nc2c(N)nc3ccccc3c2n1CC(C)(C)O [Example R848, 4-amino-2-(ethoxymethyl)-alpha, alpha-dimethyl-1H-imidazo(4,5-c)quinoline-1-ethanol, reference compound]
EC50 [4, 9]: 212 nM
EC50 ([4]; Homo sapiens, THP1-Dual, Table 7b, 96 hours): 238 nM

CCNCc1nc2c(N)nc3ccccc3c2n1CC(C)(C)O [Gardiquimod, reference compound]
EC50 [4, 9]: > 4000 nM

CCCN(CCC)C(=O)C1=Cc2ccc(-c3ccc(C(=O)N4CCCC4)cc3)cc2N=C(N)C1 [Motolimod, reference compound]
EC50 [4, 9]: 394 nM

CEACAM5_Tusamitamab-PEG4-R848 ADC (Example 2) (antibody)
EC50 NFkB pathway THP1-Dual cells [5]: 0.8 nM

CEACAM5_Tusamitamab-PEG4-R848 ADC [Example 2]
EC50 ([4]; Table 7a, 96 hours): 0.8 nM

CEACAM5_Tusamitamab-PEG8-R848 ADC (Example 8) (antibody)
EC50 NFkB pathway THP1-Dual cells [5]: 1.9 nM

CEACAM5_Tusamitamab-PEG8-R848 ADC [Example 8]
EC50 ([4]; Table 7a, 96 hours): 1.9 nM

CEACAM5_Tusamitamab-PEG12-R848 ADC (Example 14) (antibody)
EC50 NFkB pathway THP1-Dual cells [5]: 2.8 nM

CEACAM5_Tusamitamab-PEG12-R848 ADC [Example 14]
EC50 ([4]; Table 7a, 96 hours): 2.8 nM

CEACAM5_Tusamitamab-PEG24-R848
% of Immune cell-mediated killing activity [6]: 57%

CEACAM5_Tusamitamab-PEG24-R848 ADC (Example 20a) (antibody)
EC50 NFkB pathway THP1-Dual cells [5]: 0.9 nM

CEACAM5_Tusamitamab-PEG24-R848 ADC [Example 20a]
EC50 ([4]; Table 7a, 96 hours): 0.9 nM

CEACAM5_Tusamitamab_E152C_S375C-PEG24-R848 ADC [Example 43]
EC50 ([4]; Table 7b, 96 hours): 2 nM
EC50 ([2]; Table 1c, 96 hours, read-out: EC50 HEKBlue-hTLR7): > 1000 nM

EGFR_cetuximab-PEG24-R848 ADC [Example 23]
EC50 [2, 8]: > 1000 nM

Irrelevant human IgG1 (antibody)
Internalized fluorescent intensity (Median) on HEKBlue-hTLR7-CEACAM5, 4 hours [7]: 144
Internalized fluorescent intensity (Median) on HEKBlue-hTLR7-CEACAM5, 24 hours [7]: 525
Internalized fluorescent intensity (Median) on HEKBlue-hTLR7-CEACAM5, 48 hours [7]: 738
Internalized fluorescent intensity (Median) on HEKBlue-hTLR7-CEACAM5, 72 hours [7]: 833
Internalized fluorescent intensity (Median) on HEKBlue-hTLR8-CEACAM5, 4 hours [7]: 68
Internalized fluorescent intensity (Median) on HEKBlue-hTLR8-CEACAM5, 24 hours [7]: 120
Internalized fluorescent intensity (Median) on HEKBlue-hTLR8-CEACAM5, 48 hours [7]: 151
Internalized fluorescent intensity (Median) on HEKBlue-hTLR8-CEACAM5, 72 hours [7]: 167
